SMILES strings stand for the structures. A value given as a limit tells only on which side of the number the result lay.

The target in this assay is T1, ROCK2 kinase (Homo sapiens, UniProt O75116).
T1 construct: purchased Invitrogen PV3759
T1 sequence (O75116 whole entry): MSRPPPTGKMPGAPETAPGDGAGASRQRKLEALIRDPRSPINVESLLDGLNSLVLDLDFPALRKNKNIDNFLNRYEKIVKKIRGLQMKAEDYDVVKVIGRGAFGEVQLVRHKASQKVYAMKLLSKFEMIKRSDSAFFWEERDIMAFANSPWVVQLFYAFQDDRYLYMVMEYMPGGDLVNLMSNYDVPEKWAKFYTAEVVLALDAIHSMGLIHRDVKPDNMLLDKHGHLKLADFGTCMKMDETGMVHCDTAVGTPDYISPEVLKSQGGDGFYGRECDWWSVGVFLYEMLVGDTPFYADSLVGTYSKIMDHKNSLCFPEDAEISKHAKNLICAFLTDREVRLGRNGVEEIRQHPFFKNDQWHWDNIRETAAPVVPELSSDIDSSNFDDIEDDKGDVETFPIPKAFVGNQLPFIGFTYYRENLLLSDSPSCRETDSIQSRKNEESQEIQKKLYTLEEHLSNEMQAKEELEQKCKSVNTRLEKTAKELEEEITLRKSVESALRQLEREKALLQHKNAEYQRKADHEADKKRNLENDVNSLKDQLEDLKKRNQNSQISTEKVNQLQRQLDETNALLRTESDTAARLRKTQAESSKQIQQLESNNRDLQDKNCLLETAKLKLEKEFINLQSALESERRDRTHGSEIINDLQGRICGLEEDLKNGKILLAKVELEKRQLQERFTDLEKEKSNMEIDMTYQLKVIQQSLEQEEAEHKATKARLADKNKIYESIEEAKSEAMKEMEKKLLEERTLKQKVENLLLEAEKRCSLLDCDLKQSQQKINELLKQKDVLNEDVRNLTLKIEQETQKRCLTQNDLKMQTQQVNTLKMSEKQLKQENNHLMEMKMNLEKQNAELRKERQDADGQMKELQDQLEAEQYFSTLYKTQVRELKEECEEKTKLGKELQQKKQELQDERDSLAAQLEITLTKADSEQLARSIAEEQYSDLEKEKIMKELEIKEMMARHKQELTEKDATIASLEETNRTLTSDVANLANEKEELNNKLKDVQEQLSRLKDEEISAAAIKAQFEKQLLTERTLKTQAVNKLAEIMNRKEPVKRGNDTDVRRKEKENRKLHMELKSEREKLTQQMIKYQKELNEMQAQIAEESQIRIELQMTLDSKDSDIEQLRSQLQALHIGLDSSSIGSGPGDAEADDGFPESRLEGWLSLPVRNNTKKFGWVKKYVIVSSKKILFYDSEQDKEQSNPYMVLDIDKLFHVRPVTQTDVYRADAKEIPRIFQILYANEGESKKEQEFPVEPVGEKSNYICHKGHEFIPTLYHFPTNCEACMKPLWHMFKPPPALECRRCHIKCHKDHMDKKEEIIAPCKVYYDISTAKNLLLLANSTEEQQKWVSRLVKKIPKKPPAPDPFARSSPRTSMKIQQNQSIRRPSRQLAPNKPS
Kind of assay: In vitro evaluation of ROCK2 kinase activity (HTRF KinEASE-STK time-resolved fluorometric assay). The format is biochemical. As to conditions: ROCK2 kinase 0.4 ng/μL, ATP 6.739 μM. On the procedure: ROCK2 activity screening. ROCK2 activity was detected using a 96-well (Cisbio) time-resolved fluorometric assay. The assay for ROCK2 was performed in the following assay buffer: 5 mM MgCl2 (Sigma), 1 mM DTT (Sigma) and 1× kinase buffer. The kinase buffer was used for dilution. 7.5 μL of ROCK2 kinase (Invitrogen, PV3759) was added to a 96-well microplate to reach a final concentration of 0.4 ng/μL, and then 0.25 μL of test compound (DMSO content: 1% (volume fraction)) was added. The mixture was incubated at room temperature for 0.5 h. To start the reaction, the kinase buffer was used to mix ATP (Aladdin) and the substrate STK-substrate 2-biotin. 7.5 μL of the mixed solution was added to the microplate to reach final concentrations of 6.739 μM and 1 μM. The resulting mixture was incubated at room temperature for 2 h. 5 mL of detection buffer was mixed with STK antibody-Cryptate, and then an appropriate volume of the mixture was mixed with an equal volume of streptavidin-XL665. 10 μL of the resulting mixture was added to the microplate to stop the reaction. After further incubation for about 1 h, the microplate was read on a Molecular Devices SpectraMax i3x multifunctional microplate reader. The kinase buffer, the STK-substrate 2-biotin, the detection buffer, the STK antibody-Cryptate, and the streptavidin-XL665 were all from HTRF KinEASE-STK kit (Cisbio, 1000 tests, 61GSTXLA).
In general terms: In TR-FRET formats the signal depends on donor and acceptor labels being close together.
As to `Cn1c(C(=O)N2CC(F)(F)C2)cc2c1CN(c1nccc(Nc3ccc(Oc4ncccc4C(N)=O)c(F)c3)n1)CC2` [Compound L007, 2-(4-((2-(2-(3,3-difluoroazetidin-1-carbonyl)-1-methyl-1,4,5,7-tetrahydro-6H-pyrrolo[2,3-c]pyridin-6-yl)pyrimidin-4-yl)amino)-2-fluorophenoxy)nicotinamide], the IC50 (as a rule, the point on the concentration scale where inhibition reaches its midpoint) was in the range of 0.5 to 4.5 µM. For the compound `CN(C(=O)c1cn2c(n1)CN(c1nccc(Nc3ccc(-c4cn[nH]c4)cc3)n1)CC2)C1CC(F)(F)C1` [Compound L022], the concentration for half-maximal inhibition (IC50) was in the range of 0.5 to 4.5 µM. For `O=C(O)c1cc2n(c1)CCN(c1nccc(Nc3ccc(-c4cn[nH]c4)cc3)n1)C2` [Compound L013, 2-(4-((4-(1H-pyrazol-4-yl)phenyl)amino)pyrimidin-2-yl)-1,2,3,4-tetrahydropyrrolo[1,2-a]pyrazine-7-carboxylic Acid], the half-maximal inhibitory concentration (IC50) is > 4.5 µM. Take `O=C(c1ccc2nn(-c3nccc(Nc4ccc(-c5cn[nH]c5)cc4)n3)cc2c1)N1CC(F)(F)C1` [Compound L011, (2-(4-((4-(1H-pyrazol-4-yl)phenyl)amino)pyrimidin-2-yl)-2H-indazol-5-yl)(3,3-difluoroazetidin-1-yl)methanone]: the IC50 lay in the range of 0.5 to 4.5 µM. As for `O=C(c1cc2n(c1)CCN(c1nccc(Nc3ccc(-c4cn[nH]c4)cc3)n1)C2)N1CC(F)(F)C1` [Compound L025, (2-(4-((4-(1H-pyrazol-4-yl)phenyl)amino)pyrimidin-2-yl)-1,2,3,4-tetrahydropyrrolo[1,2-a]pyrazin-7-yl)(3,3-difluoroazetidin-1-yl)methanone], the IC50 was > 4.5 µM. Turning to `O=C(O)c1cn2c(n1)CN(c1nccc(Nc3ccc(-c4cn[nH]c4)cc3)n1)CC2` [Compound L002, 7-(4-((4-(1H-pyrazol-4-yl)phenyl)amino)pyrimidin-2-yl)-5,6,7,8-tetrahydroimidazo[1,2-a]pyrazine-2-carboxylic Acid], the half-inhibitory concentration (IC50) was > 4.5 µM.

In turn, `CC(C)NC(=O)c1cc2c(n1C)CN(c1nccc(Nc3ccc(-c4cn[nH]c4)cc3)n1)CC2` [Compound L009, 6-(4-((4-(1H-pyrazol-4-yl)phenyl)amino)pyrimidin-2-yl)-N-isopropyl-1-methyl-4,5,6,7-tetrahydro-1H-pyrrolo[2,3-c]pyridine-2-carboxamide] registered a half-maximal inhibitory concentration (IC50) of 0.5 to 4.5 µM.

As for `O=C(c1cc2n(n1)CCN(c1nccc(Nc3ccc(-c4cn[nH]c4)cc3)n1)C2)N1CC(F)(F)C1` [Compound L003, (5-(4-((4-(1H-pyrazol-4-yl)phenyl)amino)pyrimidin-2-yl)-4,5,6,7-tetrahydropyrazolo[1,5-a]pyrazin-2-yl)(3,3-difluoroazetidin-1-yl)methanone], the concentration for half-maximal inhibition (IC50) was > 4.5 µM.

For `CN(C(=O)c1cc2c(n1C)CN(c1nccc(Nc3ccc(-c4cn[nH]c4)cc3)n1)CC2)C1CC(F)(F)C1` [Compound L014, 6-(4-((4-(1H-pyrazol-4-yl)phenyl)amino)pyrimidin-2-yl)-N-(3,3-difluorocyclobutyl)-N,1-dimethyl-4,5,6,7-tetrahydro-1H-pyrrolo[2,3-c]pyridine-2-carboxamide], the 50% inhibitory concentration (IC50) is > 4.5 µM.

With `Cn1c(C(=O)O)cc2c1CN(c1nccc(Nc3ccc(-c4cn[nH]c4)cc3)n1)CC2` [Compound L001, 6-(4-((4-(1H-pyrazol-4-yl)phenyl)amino)pyrimidin-2-yl)-1-methyl-4,5,6,7-tetrahydro-1H-pyrrolo[2,3-c]pyridine-2-carboxylic Acid], the IC50 is > 4.5 µM.

For the origin of these results see US20230257376A1, “ROCK INHIBITOR, AND PREPARATION METHOD THEREFOR AND USE THEREOF” (WUHAN LL SCIENCE AND TECHNOLOGY DEVELOPMENT CO., LTD., priority 2020, published 2023).
